Measurements: US6251914A, “Cycloalkyl substituted imidazoles” (SmithKline Beecham Corporation, priority 1999, dated 2001)
pIC50: −log10 of the molar value. Counter-ions that a name gives are not always drawn.

molecular target: T1, CSBP2 (Homo sapiens, UniProt Q16539); assay: CSBP Kinase Assay (32P transfer to EGFR-derived peptide T669); assay type: biochemical; conditions: 170 uM ATP, 0.4 mM T669 peptide, 30° C., 10 min; read-out: positive inhibitory activity, IC50 in CSBP kinase assay
T1 construct: made in house; host or cells: yeast
T1 sequence (Q16539 whole entry): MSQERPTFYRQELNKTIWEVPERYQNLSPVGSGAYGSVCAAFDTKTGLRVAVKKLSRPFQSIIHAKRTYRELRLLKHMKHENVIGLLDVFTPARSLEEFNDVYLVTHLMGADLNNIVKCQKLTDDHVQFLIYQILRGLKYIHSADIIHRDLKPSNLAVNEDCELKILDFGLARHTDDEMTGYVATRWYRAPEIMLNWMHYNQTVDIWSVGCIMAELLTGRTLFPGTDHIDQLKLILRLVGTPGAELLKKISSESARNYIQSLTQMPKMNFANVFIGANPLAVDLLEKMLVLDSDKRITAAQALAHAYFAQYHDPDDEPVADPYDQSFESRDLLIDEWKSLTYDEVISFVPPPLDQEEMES
Description: This assay measures the CSBP-catalyzed transfer of ^32 P from […] to threonine residue in an epidermal growth factor receptor (EGFR)-derived peptide (T669) with the following sequence: […] (residues 661-681). (See Gallagher et al., "Regulation of Stress Induced Cytokine Production by Pyridinyl Imidazoles: Inhibition of CSPB Kinase", BioOrganic & Medicinal Chemistry, to be published 1996).
Kinase reactions (total volume 30 ul) contain: 25 mM Hepes buffer, pH 7.5; 10 mM MgCl2; 170 uM ATP^(1); 10 uM Na ortho vanadate; 0.4 mM T669 peptide; and 20-80 ng of yeast-expressed purified CSBP2 (see Lee et al., Nature 300, n(72), 739-746 (December 1994)). Compounds (5 ul from [6×] stock^(2)) are pre-incubated with the enzyme and peptide for 20 min. on ice prior to starting the reactions with 32P/MgATP. Reactions are incubated at 30° C. for 10 min. and stopped by adding 10 ul of 0.3 M phosphoric acid. 32P-labeled peptide is separated on phosphocellulose (Wattman, p81) filters by spotting 30 ul reaction mixture. Filters are washed 3 times with 75 mM phosphoric acid followed by 2 washes with H2 O, and counted for 32P.
^(2) Compounds are usually dissolved in DMSO and are diluted in 25 mM HEPES buffer to get final concentration of DMSO of 0.17%.

Compound | pIC50
CCOc1nccc(-c2c(-c3ccc(F)cc3)ncn2[C@H]2CC[C@H](O)CC2)n1 [Example 9, trans-1-(4-Hydroxycyclohexyl)-4-(4-fluorophenyl)-5-[(2-ethoxy)pyrimidine-4-yl]imidazole] | > 4.30
COc1nccc(-c2c(-c3ccc(F)cc3)ncn2C2CCCCC2)n1 [Example 12, 1-Cyclohexyl-4-(4-fluorophenyl)-5-(2-methoxypyrimidin-4-yl)imidazole] | > 4.30
COc1nccc(-c2c(-c3ccc(F)cc3)ncn2C2CC2)n1 [Example 14, 1-Cyclopropyl-4-(fluorophenyl)-5-(2-methoxypyrimidin-4-yl)imidazole] | > 4.30
COc1nccc(-c2c(-c3ccc(F)cc3)ncn2C2CCCC2)n1 [Example 15, 1-Cyclopentyl-4-(4-fluorophenyl)-5-(2-methoxypyrimidin-4-yl)imidazole] | > 4.30

test system: IL-1 and TNF; assay: not given; conditions: cited from earlier work

Compound | inhibition of IL-1 and TNF
C[S+]([O-])c1ccc(-c2nc(-c3ccncc3)c(-c3ccc(F)cc3)[nH]2)cc1 (stereo not drawn) [SB 203580] | inhibiting IL-1 and TNF
Fc1ccc(-c2nc3n(c2-c2ccncc2)CCS3)cc1 [SK&F 86002] | inhibiting IL-1 and TNF

molecular target: T2, p38 (Homo sapiens, UniProt Q16539); assay: CSBP Kinase Assay, minor variation (activated p38, T669 peptide, 96 well plate); assay type: biochemical; conditions: 0.17 mM ATP, 0.67 mM T669 peptide, 24 nM p38, 37° C., 25 min; read-out: positive inhibitory activity, IC50 in kinase assay (minor variation)
T2 construct: made in house; host or cells: yeast
T2 sequence (Q16539 whole entry): as above
Description: A minor variation of the above assay is shown below:
Reactions were carried in round bottom 96 well plate (from Corning) in a […]. Reactions contained (in final concentration): 25 mM Hepes, pH7.5; 8 mM MgCl2; 0.17 mM ATP (the Km[ATP] of p38 (see Lee et al., Nature 300, n72 pg 639-746 (December 1994)); 2.5 uCi of [g-32P]ATP; 0.2 mM sodium orthovanadate; 1 mM DTT; 0.1% BSA; 10% glycerol; 0.67 mM T669 peptide; and 24 nM of yeast-expressed, activated and purified p38. Reactions were initiated by the addition of [gamma-32P]Mg/ATP, and incubated for 25 min. at 37° C. Inhibitors (dissolved in DMSO) were incubated with the reaction mixture on ice for 30 minutes prior to adding the 32P-ATP. Final DMSO concentration was 0.16%. Reactions were terminated by adding 10 ul of 0.3 M phosphoric acid, and phosphorylated peptide was isolated from the reactions by capturing it on p81 phosphocellulose filters. Filters were washed with 75 mM phosphoric acids, and incorporated 32P was quantified using beta scintillation counter. Under these conditions, the specific activity of p38 was 400-450 pmol/pmol enzyme, and the activity was linear for up to 2 hr of incubation. The kinase activity values were obtained after subtracting values generated in the absence of substrate which were 10-15% of total values.

Compound | pIC50
COc1nccc(-c2c(-c3ccc(F)cc3)ncn2C2CCC2)n1 [Example 13, 1-Cyclobutyl-4-(4-fluorophenyl)-5-(2-methoxypyrimidin-4-yl)imidazole] | > 4.30
COc1nccc(-c2c(-c3ccc(F)cc3)ncn2C2CCCCCC2)n1 [Example 16, 1-Cycloheptyl-4-(4-fluorophenyl)-5-(2-methoxypyrimidin-4-yl)imidazole] | > 4.30
COc1nccc(-c2c(-c3ccc(F)cc3)ncn2[C@H]2CC[C@H](OCSC)CC2)n1 [Example 17, trans-4-(4-Fluorophenyl)-5-(2-methoxypyrimidin-4-yl)-1-[4-(methylthiomethoxy)cyclohexyl]imidazole] | > 4.30
COc1nccc(-c2c(-c3ccc(F)cc3)ncn2[C@H]2CC[C@H](OCCN(C)C)CC2)n1 [Example 18, trans-4-(4-Fuorophenyl)-1-[4-(2-(N,N-dimethylamino)ethoxy)cyclohexyl]-5-[(2-methoxy)pyrimidine-4-yl]-imidazole hydrochloride] | > 4.30

test system: IL-6, IL-8, GM-CSF and COX-2; assay: not given; conditions: cited from earlier work

Compound | synthesis of pro-inflammatory proteins including IL-6, IL-8, GM-CSF and COX-2
C[S+]([O-])c1ccc(-c2nc(-c3ccncc3)c(-c3ccc(F)cc3)[nH]2)cc1 (stereo not drawn) [SB 203580] | decrease the synthesis
Fc1ccc(-c2nc3n(c2-c2ccncc2)CCS3)cc1 [SK&F 86002] | decrease the synthesis
